System: human mixed lymphocyte reaction (MLR)
Experiment: human mixed lymphocyte reaction (MLR) assay of immunosuppressant activity
Type: cell-based
Conditions: Table 1
Method: The immunosuppressant activity of the compounds of the present invention was determined using the human mixed lymphocyte reaction (MLR) assay described by Kino, T. et al. in Transplantation Proceedings XIX(5):36-39, Suppl. 6 (1987), incorporated herein by reference.

| IC50 [nM] | SMILES |
| --- | --- |
| < 1000 | CC[C@@H]1/C=C(\C)C[C@H](C)C[C@H](OC)[C@H]2O[C@@](O)(C(=O)C(=O)N3CCCC[C@H]3C(=O)O[C@H](/C(C)=C/[C@@H]3CCC(N4CCC[C@@H]4CO)[C@H](OC)C3)[C@H](C)[C@@H](O)CC1=O)[C@H](C)C[C@@H]2OC (single isomer, unassigned) [Example 76] |
| < 1000 | CC[C@@H]1/C=C(\C)C[C@H](C)C[C@H](OC)[C@H]2O[C@@](O)(C(=O)C(=O)N3CCCC[C@H]3C(=O)O[C@H](/C(C)=C/[C@@H]3CCC(N4CCC[C@H]4CO)[C@H](OC)C3)[C@H](C)[C@@H](O)CC1=O)[C@H](C)C[C@@H]2OC (single isomer, unassigned) [Example 109] |
| < 1000 | CC[C@@H]1/C=C(\C)C[C@H](C)C[C@H](OC)[C@H]2O[C@@](O)(C(=O)C(=O)N3CCCC[C@H]3C(=O)O[C@H](/C(C)=C/[C@@H]3CCC(N4CCN(C)CC4)[C@H](OC)C3)[C@H](C)[C@@H](O)CC1=O)[C@H](C)C[C@@H]2OC (stereo partly shown) [Example 5] |
| < 1000 | CC[C@@H]1/C=C(\C)C[C@H](C)C[C@H](OC)[C@H]2O[C@@](O)(C(=O)C(=O)N3CCCC[C@H]3C(=O)O[C@H](/C(C)=C/[C@@H]3CCC(N4CCN(Cc5ccccc5)CC4)[C@H](OC)C3)[C@H](C)[C@@H](O)CC1=O)[C@H](C)C[C@@H]2OC (stereo partly shown) [Example 7] |
| < 1000 | CC[C@@H]1/C=C(\C)C[C@H](C)C[C@H](OC)[C@H]2O[C@@](O)(C(=O)C(=O)N3CCCC[C@H]3C(=O)O[C@H](/C(C)=C/[C@@H]3CCC(N4CCN(c5ccccc5)CC4)[C@H](OC)C3)[C@H](C)[C@@H](O)CC1=O)[C@H](C)C[C@@H]2OC (stereo partly shown) [Example 9] |
| < 1000 | CC[C@@H]1/C=C(\C)C[C@H](C)C[C@H](OC)[C@H]2O[C@@](O)(C(=O)C(=O)N3CCCC[C@H]3C(=O)O[C@H](/C(C)=C/[C@@H]3CCC(N4CCN(C(=O)OC(C)(C)C)CC4)[C@H](OC)C3)[C@H](C)[C@@H](O)CC1=O)[C@H](C)C[C@@H]2OC (stereo partly shown) [Example 11] |
| < 1000 | CCC1C=C(C)CC(C)CC(OC)C2OC(O)(C(=O)C(=O)N3CCCCC3C(=O)OC(C(C)=CC3CCC(N4CCN(Cc5ccc([N+](=O)[O-])cc5)CC4)C(OC)C3)C(C)C(O)CC1=O)C(C)CC2OC (stereo not shown) [Example 12] |
| < 1000 | CCC1C=C(C)CC(C)CC(OC)C2OC(O)(C(=O)C(=O)N3CCCCC3C(=O)OC(C(C)=CC3CCC(N4CCN(Cc5ccc6ccccc6c5)CC4)C(OC)C3)C(C)C(O)CC1=O)C(C)CC2OC (stereo not shown) [Example 13] |
| < 1000 | CC[C@@H]1/C=C(\C)C[C@H](C)C[C@H](OC)[C@H]2O[C@@](O)(C(=O)C(=O)N3CCCC[C@H]3C(=O)O[C@H](/C(C)=C/[C@@H]3CCC(N4CCCCC4)[C@H](OC)C3)[C@H](C)[C@@H](O)CC1=O)[C@H](C)C[C@@H]2OC (stereo partly shown) [Example 14] |
| < 1000 | CC[C@@H]1/C=C(\C)C[C@H](C)C[C@H](OC)[C@H]2O[C@@](O)(C(=O)C(=O)N3CCCC[C@H]3C(=O)O[C@H](/C(C)=C/[C@@H]3CCC(N4CCN(C=O)CC4)[C@H](OC)C3)[C@H](C)[C@@H](O)CC1=O)[C@H](C)C[C@@H]2OC (stereo partly shown) [Example 15] |
| < 1000 | CC[C@@H]1/C=C(\C)C[C@H](C)C[C@H](OC)[C@H]2O[C@@](O)(C(=O)C(=O)N3CCCC[C@H]3C(=O)O[C@H](/C(C)=C/[C@@H]3CCC(N4CCC5(CC4)OCCO5)[C@H](OC)C3)[C@H](C)[C@@H](O)CC1=O)[C@H](C)C[C@@H]2OC (stereo partly shown) [Example 16] |
| < 1000 | CC[C@@H]1/C=C(\C)C[C@H](C)C[C@H](OC)[C@H]2O[C@@](O)(C(=O)C(=O)N3CCCC[C@H]3C(=O)O[C@H](/C(C)=C/[C@@H]3CCC(N4CCN(CCO)CC4)[C@H](OC)C3)[C@H](C)[C@@H](O)CC1=O)[C@H](C)C[C@@H]2OC (stereo partly shown) [Example 17] |
| < 1000 | CC[C@@H]1/C=C(\C)C[C@H](C)C[C@H](OC)[C@H]2O[C@@](O)(C(=O)C(=O)N3CCCC[C@H]3C(=O)O[C@H](/C(C)=C/[C@@H]3CCC(N4CCOCC4)[C@H](OC)C3)[C@H](C)[C@@H](O)CC1=O)[C@H](C)C[C@@H]2OC (stereo partly shown) [Example 18] |
| < 1000 | CC[C@@H]1/C=C(\C)C[C@H](C)C[C@H](OC)[C@H]2O[C@@](O)(C(=O)C(=O)N3CCCC[C@H]3C(=O)O[C@H](/C(C)=C/[C@@H]3CCC(N4CCN(CCOCCO)CC4)[C@H](OC)C3)[C@H](C)[C@@H](O)CC1=O)[C@H](C)C[C@@H]2OC (stereo partly shown) [Example 19] |
| < 1000 | CC[C@@H]1/C=C(\C)C[C@H](C)C[C@H](OC)[C@H]2O[C@@](O)(C(=O)C(=O)N3CCCC[C@H]3C(=O)O[C@H](/C(C)=C/[C@@H]3CCC(N4CCN(c5ccccn5)CC4)[C@H](OC)C3)[C@H](C)[C@@H](O)CC1=O)[C@H](C)C[C@@H]2OC (stereo partly shown) [Example 20] |
| < 1000 | CC[C@@H]1/C=C(\C)C[C@H](C)C[C@H](OC)[C@H]2O[C@@](O)(C(=O)C(=O)N3CCCC[C@H]3C(=O)O[C@H](/C(C)=C/[C@@H]3CCC(N4CCN(c5ncccn5)CC4)[C@H](OC)C3)[C@H](C)[C@@H](O)CC1=O)[C@H](C)C[C@@H]2OC (stereo partly shown) [Example 21] |

| IC50 [nM] | SMILES |
| --- | --- |
| < 1000 | CC[C@@H]1/C=C(\C)C[C@H](C)C[C@H](OC)[C@H]2O[C@@](O)(C(=O)C(=O)N3CCCC[C@H]3C(=O)O[C@H](/C(C)=C/[C@@H]3CCC(N4CCNCC4)[C@H](OC)C3)[C@H](C)[C@@H](O)CC1=O)[C@H](C)C[C@@H]2OC (stereo partly shown) [Example 22] |
| < 1000 | CC[C@@H]1/C=C(\C)C[C@H](C)C[C@H](OC)[C@H]2O[C@@](O)(C(=O)C(=O)N3CCCC[C@H]3C(=O)O[C@H](/C(C)=C/[C@@H]3CCC(N4CCN(CC(=O)N5CCCC5)CC4)[C@H](OC)C3)[C@H](C)[C@@H](O)CC1=O)[C@H](C)C[C@@H]2OC (stereo partly shown) [Example 27] |
| < 1000 | CC[C@@H]1/C=C(\C)C[C@H](C)C[C@H](OC)[C@H]2O[C@@](O)(C(=O)C(=O)N3CCCC[C@H]3C(=O)O[C@H](/C(C)=C/[C@@H]3CCC(N4CCN(CC(=O)N5CCOCC5)CC4)[C@H](OC)C3)[C@H](C)[C@@H](O)CC1=O)[C@H](C)C[C@@H]2OC (stereo partly shown) [Example 28] |
| < 1000 | CC[C@@H]1/C=C(\C)C[C@H](C)C[C@H](OC)[C@H]2O[C@@](O)(C(=O)C(=O)N3CCCC[C@H]3C(=O)O[C@H](/C(C)=C/[C@@H]3CCC(N4CCN(C5CCCC5)CC4)[C@H](OC)C3)[C@H](C)[C@@H](O)CC1=O)[C@H](C)C[C@@H]2OC (stereo partly shown) [Example 31] |
| < 1000 | CCC1C=C(C)CC(C)CC(OC)C2OC(O)(C(=O)C(=O)N3CCCCC3C(=O)OC(C(C)=CC3CCC(N4CCN(Cc5ccc6c(c5)OCO6)CC4)C(OC)C3)C(C)C(O)CC1=O)C(C)CC2OC (stereo not shown) [Example 38] |
| < 1000 | CC[C@@H]1/C=C(\C)C[C@H](C)C[C@H](OC)[C@H]2O[C@@](O)(C(=O)C(=O)N3CCCC[C@H]3C(=O)O[C@H](/C(C)=C/[C@@H]3CCC(N4CCN(c5ccc(C(C)=O)cc5)CC4)[C@H](OC)C3)[C@H](C)[C@@H](O)CC1=O)[C@H](C)C[C@@H]2OC (stereo partly shown) [Example 39] |
| < 1000 | CC[C@@H]1/C=C(\C)C[C@H](C)C[C@H](OC)[C@H]2O[C@@](O)(C(=O)C(=O)N3CCCC[C@H]3C(=O)O[C@H](/C(C)=C/[C@@H]3CCC(N4CCC(N5CCCC5)CC4)[C@H](OC)C3)[C@H](C)[C@@H](O)CC1=O)[C@H](C)C[C@@H]2OC (stereo partly shown) [Example 44] |
| < 1000 | CCOC(=O)N1CCN(C2CC[C@@H](/C=C(\C)[C@H]3OC(=O)[C@@H]4CCCCN4C(=O)C(=O)[C@]4(O)O[C@H]([C@@H](OC)C[C@@H](C)C/C(C)=C/[C@@H](CC)C(=O)C[C@H](O)[C@H]3C)[C@@H](OC)C[C@H]4C)C[C@H]2OC)CC1 (stereo partly shown) [Example 58] |
| < 1000 | CC[C@@H]1/C=C(\C)C[C@H](C)C[C@H](OC)[C@H]2O[C@@](O)(C(=O)C(=O)N3CCCC[C@H]3C(=O)O[C@H](/C(C)=C/[C@@H]3CCC(N4CCN(C(C)=O)CC4)[C@H](OC)C3)[C@H](C)[C@@H](O)CC1=O)[C@H](C)C[C@@H]2OC (stereo partly shown) [Example 61] |
| < 1000 | CC[C@@H]1/C=C(\C)C[C@H](C)C[C@H](OC)[C@H]2O[C@@](O)(C(=O)C(=O)N3CCCC[C@H]3C(=O)O[C@H](/C(C)=C/[C@@H]3CCC(N4CCN(CC(=O)NC(C)C)CC4)[C@H](OC)C3)[C@H](C)[C@@H](O)CC1=O)[C@H](C)C[C@@H]2OC (stereo partly shown) [Example 62] |
| < 1000 | CC[C@@H]1/C=C(\C)C[C@H](C)C[C@H](OC)[C@H]2O[C@@](O)(C(=O)C(=O)N3CCCC[C@H]3C(=O)O[C@H](/C(C)=C/[C@@H]3CCC(N4CCC(O)CC4)[C@H](OC)C3)[C@H](C)[C@@H](O)CC1=O)[C@H](C)C[C@@H]2OC (stereo partly shown) [Example 67] |
| < 1000 | CC[C@@H]1/C=C(\C)C[C@H](C)C[C@H](OC)[C@H]2O[C@@](O)(C(=O)C(=O)N3CCCC[C@H]3C(=O)O[C@H](/C(C)=C/[C@@H]3CCC(N4CCCCC4CO)[C@H](OC)C3)[C@H](C)[C@@H](O)CC1=O)[C@H](C)C[C@@H]2OC (stereo partly shown) [Example 105] |
| < 1000 | CC[C@@H]1/C=C(\C)C[C@H](C)C[C@H](OC)[C@H]2O[C@@](O)(C(=O)C(=O)N3CCCC[C@H]3C(=O)O[C@H](/C(C)=C/[C@@H]3CCC(N4CCCC(CO)C4)[C@H](OC)C3)[C@H](C)[C@@H](O)CC1=O)[C@H](C)C[C@@H]2OC (stereo partly shown) [Example 106] |
| < 1000 | CC[C@@H]1/C=C(\C)C[C@H](C)C[C@H](OC)[C@H]2O[C@@](O)(C(=O)C(=O)N3CCCC[C@H]3C(=O)O[C@H](/C(C)=C/[C@@H]3CCC(N4CCCCC4CCO)[C@H](OC)C3)[C@H](C)[C@@H](O)CC1=O)[C@H](C)C[C@@H]2OC (stereo partly shown) [Example 107] |
| < 1000 | CC[C@@H]1/C=C(\C)C[C@H](C)C[C@H](OC)[C@H]2O[C@@](O)(C(=O)C(=O)N3CCCC[C@H]3C(=O)O[C@H](/C(C)=C/[C@@H]3CCC(N4CCCC(O)C4)[C@H](OC)C3)[C@H](C)[C@@H](O)CC1=O)[C@H](C)C[C@@H]2OC (stereo partly shown) [Example 108] |

Source: patent publication US5561140A, “Substituted alicyclic amine-containing macrocyclic immunomodulators” (Abbott Laboratories, priority 1995, dated 1996)
